Test results: patent US20230382940A1, “ANTIVIRAL COMPOUNDS AND METHODS OF MAKING AND USING THE SAME” (Gilead Sciences, Inc., priority 2022, published 2023)

Columns and labels:
Assay type in all cases: cell-based
[1] = test system: Human Rhinovirus 1B (HRV1B); assay: H1-HeLa HRV-CTG 384-well assay, HRV1B, Example X; details: Rhinovirus A, 96 h; H1-HeLa cells, HRV1B MOI 0.5, 4 days, Celltiter-Glo; read-out: EC50 H1-HeLa_HRV 1B_HRV-CTG 384-well Assay (per Ex. X)
From the text: (§1) Example X: H1-HeLa HRV-CTG 384-Well Assay
(§2) H1-Hela cell line (ATCC, Manassas, VA, Cat #CRL-1958) was maintained in Dulbecco's […] (DMEM) (Corning, New York, NY, Cat #15-018CM) supplemented with 10% fetal bovine serum (FBS) (Hyclone, Logan, UT, Cat #SH30071-03), and 1× Penicillin-Streptomycin-L-Glutamine (Corning, New York, NY, Cat #30-009-CI). Cells were passaged 2 times per week to maintain sub-confluent densities and were used for experiments at passage 5-30. The Human Rhinovirus 1B (HRV1B) (ATCC, Manassas, VA, Cat #VR-1645), Human Rhinovirus 14 (HRV14) (ATCC, Manassas, VA, Cat #VR-284), and Human Rhinovirus 16 (HRV16) (ATCC, Manassas, VA, Cat #BR-283) was obtained through ATCC. Viral infection was monitored by determining viability of H1-HeLa cells as described below.
(§3) Test molecules are prepared in 100% DMSO in 384-well polypropylene plates (Greiner, Monroe, NC, Cat #784201) with 8 compounds per plate in grouped replicates of 4 at 10 serially diluted concentrations (1:3). The serially diluted compounds were transferred to low dead volume Echo plates (Labcyte, Sunnyvale, CA, Cat #LP-0200).
(§4) The test compounds were spotted to 384-well assay plates (Greiner, Monroe, NC, Cat #781091) at 200 nL per well using an Echo acoustic dispenser (Labcyte, Sunnyvale, CA). H1-HeLa cells were harvested and suspended in DMEM (supplemented with 2% FBS and 1× Penicillin-Streptomycin-L-Glutamine) and seeded to the pre-spotted assay plates at 5,000 cells per well in 30 μL. HRV1B, HRV14, and HRV16 was diluted in DMEM (supplemented with 2% FBS and 1× Penicillin-Streptomycin-L-Glutamine) at 97.1 million Infectious Units (IU) per mL, 151 million IU per mL and 221 million IU per mL respectively. 10 μL of virus per well was added to the assay plates containing cells and compounds, for an MOI of 0.5, 1.0, and 0.25 respectively. The assay plates were incubated for 4 days at 37° C. and 5% CO2. At the end of incubation, Celltiter-Glo (Promega, Madison, WI, Cat #G7573) was prepared. The assay plates and Celltiter-Glo reagent were equilibrated to room temperature for at least 15 minutes. 40 μL per well of Celltiter-Glo reagent was added and the plates were incubated at room temperature for 15 minutes before reading the luminescence signal on an EnVision multimode plate reader (Perkin Elmer, Waltham, MA). Rupintrivir was used as positive control and DMSO was used as negative control. Values were normalized to the positive and negative controls (as 0% and 100% replication, respectively) and data was fitted using non-linear regression analysis by Gilead's dose response tool. The EC50 value for each compound was defined as the concentration reducing viral replication by 50%.

[2] = test system: Respiratory syncytial virus recombinant with luciferase (RSV-Luc5); assay: NHBE RSV-Luc5 384-well assay (EC50 RSVFLUC NHBE-384 v2), Example W; details: human respiratory syncytial virus, 72 h, read-out: EC50 RSV FLUC NHBE 384 V2 (per Ex. W)
From the text: Example W: NHBE RSV-Luc5 384-Well Assay (EC50 RSVFLUC NHBE-384 v2)
Normal Human Bronchial Epithelial (NHBE) cells were purchased from Lonza (Walkersville, MD Cat #CC2540) and maintained in BEGM Bronchial Epithelial Cell Growth Medium BulletKit (Lonza CC-3170).
Cells were thawed, expanded, and were used for experiments at passage 2. Respiratory syncytial virus recombinant with luciferase (RSV-Luc5) (≥1×10^7 Infectious Units/mL (IU/mL) determined by TCID50) was purchased from Microbiologics (Saint Cloud, MN). Viral replication was determined in NHBE cells in the following manner.
as §3, with “Compounds” for “Test molecules”
The test compounds were spotted to 384-well assay plates (Greiner, Monroe, NC, Cat #781091) at 200 nL per well using an Echo acoustic dispenser (Labcyte, Sunnyvale, CA). NHBE cells were harvested and suspended in BEGM Bronchial Epithelial Cell Growth Medium BulletKit and seeded to the pre-spotted assay plates at 5,000 cells per well in 30 μL. RSV-Luc5 virus was diluted in BEGM Bronchial Epithelial Cell Growth Medium BulletKit at 500,000 Infectious Units (IU) per mL and 10 μL per well was added to the assay plates containing cells and compounds, for an MOI of 1. The assay plates were incubated for 3 days at 37° C. and 5% CO2. At the end of incubation, One-Glo reagent (Promega, Madison, WI, Cat #E6120) was prepared. The assay plates and One-Glo reagent were equilibrated to room temperature for at least 15 minutes. 40 μL per well of One-Glo reagent was added and the plates were incubated at room temperature for 15 minutes before reading the luminescence signal on an EnVision multimode plate reader (Perkin Elmer, Waltham, MA). Remdesivir was used as positive control and DMSO was used as negative control. Values were normalized to the positive and negative controls (as 0% and 100% replication, respectively) and data was fitted using non-linear regression analysis by Gilead's dose response tool. The EC50 value for each compound was defined as the concentration reducing the viral replication by 50%.

[3] = test system: Respiratory syncytial virus recombinant with luciferase (RSV-Luc5); assay: HEp-2 RSV-Luc5 384-well assay (EC50 RSVFLUC Hep2-384 v2), Example V; details: human respiratory syncytial virus, HEp-2, 72 h, read-out: EC50 RSV FLuc Hep-2 384 V2 (per Ex. V)
From the text: Example V: HEp-2 RSV-Luc5 384-Well Assay (EC50 RSVFLUC Hep2-384 v2)
HEp-2 cell line was purchased from ATCC (Manassas, VA Cat #CCL-23) and maintained in Dulbecco's […] (DMEM) (Corning, New York, NY, Cat #15-018CM) supplemented with 10% fetal bovine serum (FBS) (Hyclone, Logan, UT, Cat #SH30071-03) and 1× Penicillin-Streptomycin-L-Glutamine (Corning, New York, NY, Cat #30-009-C1). Cells were passaged 2 times per week to maintain sub-confluent densities and were used for experiments at passage 5-20. Respiratory syncytial virus recombinant with luciferase (RSV-Luc5) (≥1×107 TCID50/ml) was purchased from Microbiologics (Saint Cloud, MN). Viral replication was determined in HEp-2 cells in the following manner.
as §3, with “Compounds” for “Test molecules”
The test compounds were spotted to 384-well assay plates (Greiner, Monroe, NC, Cat #781091) at 200 nL per well. HEp-2 cells were harvested and suspended in DMEM (supplemented with 10% FBS and 1× Penicillin-Streptomycin-L-Glutamine) and seeded to the pre-spotted assay plates at 4,000 cells per well in 30 μL. RSV-Luc5 viruses were diluted in DMEM (supplemented with 10% FBS and 1× Penicillin-Streptomycin-L-(Glutamine) at 200,000 Infectious Units (IU) per mL and 10 μL per well was added to the assay plates containing cells and compounds, for an MOI=0.5. The assay plates were incubated for 3 days at 37° C. and 5% CO2. At the end of incubation, One-Glo reagent (Promega, Madison, WI, Cat #E6120) was prepared. The assay plates and One-Glo reagent were equilibrated to room temperature for at least 15 minutes. 40 μL per well of One-Glo reagent was added and the plates were incubated at room temp for 15 minutes before reading the luminescence signal on an EnVision multimode plate reader (Perkin Elmer, Waltham, MA). Remdesivir was used as positive control and DMSO was used as negative control. Values were normalized to the positive and negative controls (as 0% and 100% replication, respectively) and data was fitted using non-linear regression analysis by Gilead's dose response tool. The EC50 value for each compound was then determined as the concentration reducing the viral replication by 50%.

[4] = test system: Human Rhinovirus 16 (HRV16); assay: H1-HeLa HRV-CTG 384-well assay, HRV16, Example X; details: Rhinovirus A, 96 h; H1-HeLa cells, HRV16 MOI 0.25, 4 days, Celltiter-Glo; read-out: EC50 H1-HeLa_HRV 16_HRV-CTG 384-well Assay (per Ex. X)
From the text: as §1, §2, §3, §4

[5] = test system: Human Rhinovirus 14 (HRV14); assay: H1-HeLa HRV-CTG 384-well assay, HRV14, Example X; details: Rhinovirus B, 96 h; H1-HeLa cells, HRV14 MOI 1.0, 4 days, Celltiter-Glo; read-out: EC50 H1-HeLa_HRV 14_HRV-CTG 384-well Assay (per Ex. X)
From the text: as §1, §2, §3, §4

Row | SMILES | EC50 [1] [µM] | EC50 [2] [µM] | EC50 [3] [µM] | EC50 [4] [µM] | EC50 [5] [µM]
1 | CO[C@@H]1O[C@H]2[C@H](c3ccc4c(N)ncnn34)O[C@](C#N)(COC(=O)OCC(C)C)[C@H]2O1 (single isomer, unassigned) [Compound 25] | 50 | 50 | 50 | 50 | 50
2 | CO[C@H]1O[C@H]2[C@H](c3ccc4c(N)ncnn34)O[C@](C#N)(COC(=O)OCC(C)C)[C@H]2O1 (single isomer, unassigned) [Compound 26] | 50 | 50 | 50 | 50 | 50
3 | CC1(OC(=O)OC[C@@]2(C#N)O[C@@H](c3ccc4c(N)ncnn34)[C@H](O)[C@@H]2O)CC1 [Compound 3, ((2R,3S,4R,5S)-5-(4-aminopyrrolo[2,1-f][1,2,4]triazin-7-yl)-2-cyano-3,4-dihydroxytetrahydrofuran-2-yl)methyl (1-methylcyclopropyl) carbonate] | 16 | 7.93 | 20.9 | 34.5 | 24.4
4 | N#C[C@]1(COC(=O)OC2CCCCCCC2)O[C@@H](c2ccc3c(N)ncnn23)[C@H](O)[C@@H]1O [Compound 18, ((2R,3S,4R,5S)-5-(4-aminopyrrolo[2,1-f][1,2,4]triazin-7-yl)-2-cyano-3,4-dihydroxytetrahydrofuran-2-yl)methyl cyclooctyl carbonate] | – | 5.77 | – | – | –
5 | CC(C)(OC(=O)OC[C@@]1(C#N)O[C@@H](c2ccc3c(N)ncnn23)[C@H](O)[C@@H]1O)C(F)F [Compound 27, ((2R,3S,4R,5S)-5-(4-aminopyrrolo[2,1-f][1,2,4]triazin-7-yl)-2-cyano-3,4-dihydroxytetrahydrofuran-2-yl)methyl (1,1-difluoro-2-methylpropan-2-yl) carbonate] | – | 8.03 | – | – | –
6 | CC(C)OC(=O)Nc1ncnn2c([C@@H]3O[C@](C#N)(COC(=O)OC(C)C)[C@@H](OC(=O)OC(C)C)[C@H]3OC(=O)OC(C)C)ccc12 [Compound 42, Isopropyl (7-((2S,3S,4S,5R)-5-cyano-3,4-bis((isopropoxycarbonyl)oxy)-5-(((isopropoxycarbonyl)oxy)methyl)tetrahydrofuran-2-yl)pyrrolo[2,1-f][1,2,4]triazin-4-yl)carbamate] | – | 26.1 | – | – | –
7 | CC(C)OC(=O)OC[C@@]1(C#N)O[C@@H](c2ccc3c(N)ncnn23)[C@H](OC(=O)OC(C)C)[C@@H]1OC(=O)OC(C)C [Compound 43, (2R,3S,4S,5S)-5-(4-aminopyrrolo[2,1-f][1,2,4]triazin-7-yl)-2-cyano-2-(((isopropoxycarbonyl)oxy)methyl)tetrahydrofuran-3,4-diyl diisopropyl bis(carbonate)] | – | 6.99 | – | – | –
8 | COC(=O)Nc1ncnn2c([C@@H]3O[C@](C#N)(COC(=O)OC)[C@@H](OC(=O)OC)[C@H]3OC(=O)OC)ccc12 [Compound 44, Methyl (7-((2S,3S,4S,5R)-5-cyano-3,4-bis((methoxycarbonyl)oxy)-5-(((methoxycarbonyl)oxy)methyl)tetrahydrofuran-2-yl)pyrrolo[2,1-f][1,2,4]triazin-4-yl)carbamate] | – | 15.8 | – | – | –
9 | COC(=O)OC[C@@]1(C#N)O[C@@H](c2ccc3c(N)ncnn23)[C@H](OC(=O)OC)[C@@H]1OC(=O)OC [Compound 45, (2R,3S,4S,5S)-5-(4-aminopyrrolo[2,1-f][1,2,4]triazin-7-yl)-2-cyano-2-(((methoxycarbonyl)oxy)methyl)tetrahydrofuran-3,4-diyl dimethyl bis(carbonate)] | – | 29.4 | – | – | –
